Data taken from patent US11096910B2, “Metabolically robust analogs of CYP-eicosanoids for the treatment of cardiac disease” (OMEICOS THERAPEUTICS GMBH, priority 2015, dated 2021).

Experiments:
[1] = tested on: spontaneously beating neonatal rat cardiomyocytes (NRCMs); test: Spontaneous beating rate of neonatal rat cardiomyocytes (anti-arrhythmic cell model); assay type: cell-based; details: 20 nM or 30 nM; comparison between analogs
Experimental: The compounds include analogues being part of the invention (Comp-01 to Comp-05), which were synthesized as described in example 1, and additional related compounds (Comp-06 to Comp-13). A 1000-fold stock solutions in ethanol of the test compounds was prepared before use.
In order to measure the biological activities of metabolically robust analogs of CYP-eicosanoids an established cell model was used (Kang, J. X. et al., Proc Natl Acad Sci USA, 1994. 91(21): p. 9886-90). The spontaneously beating neonatal rat cardiomyocytes (NRCMs) are a model system to investigate anti-arrhythmic effects of test-compounds. […]
Isolation and cultivation of NRCMs were performed as described previously (Wallukat, G et al., J Clin Invest. 1999; 103: 945-952; Falck, J R et al., J Med Chem. 2011 Jun. 23; 54(12):4109-18). […] After four hours of incubation cells were adopted for 10 min to 31° C. and beating was recorded using an inverted microscope (Leica DM IRB) equipped with a CCD camera and coupled to an IonOptix (software: IonWizard6, IonOptix). To determine the basal rate, 6 to 8 individual clusters were selected and the number of contractions was counted for 15 sec. After that, the compound to be tested was added to the culture and the beating rate of the same clusters was monitored 5 min later again. […]

male B16 mice = test: Atrial fibrillation induced by programmed electrical stimulation in a mouse model of moderate cardiac hypertrophy; assay type: in vivo
Experimental: Study design: To gain insight into in-vivo effect of synthetic 17,18-EEQ-agonists, atrial fibrillation studies were performed in male B16 mice as described in Westphal, C. et al., PLoS ONE. 2013, 8(8): e73490. Briefly, moderate cardiac hypertrophy was induced by continuous infusion of isoproterenol via subcutaneously implanted osmotic minipumps (Alzet) at a rate of 40 mg/kg/d for two weeks. After two weeks of treatment, ECG and electrophysiological data were recorded. Programmed electrical stimulation (PES) was performed in the right atrium or right ventricle using a digital electrophysiology lab (EP Tracer; CardioTek) to determine refractory periods and arrhythmia inducibility. Atrial arrhythmias were defined as fast (>800 bpm) electrical activity in the right atrial electrograms, with ECG P waves different to normal sinus rhythm and subsequent fast, but physiological activation of the ventricles (ECG R wave and right ventricular electrograms similar to normal sinus rhythm). Atrial fibrillation was defined as fast, irregular activity in the right atrial electrograms with irregular conduction to the ventricles (high variability of R—R intervals). Ventricular arrhythmias were defined by fast (>800 bpm) activity originating from the ventricular myocardium (change in morphology of ECG R waves and local right ventricular electrograms compared to normal sinus rhythm). During inhalation anesthesia with isoflurane (2% with 360 ml/min air flow; Univentor 400 anesthesia unit), the animals' body temperature was kept constant at 37° C. using a homeothermic blanket control unit (Hugo Sachs Elektronik, Harvard Apparatus) with rectal temperature control. After preparation of the right jugular vein, a 2 French octapolar electrophysiology catheter (CIB'ER mouse cath; NuMed) was placed in the right heart, including atrium and ventricle. PES was performed using a standardized protocol that included trains of 10 basal stimuli (S1) followed by up to 3 extra stimuli (S2-S4), delivered with a coupling interval decreasing in steps of 5 ms until ventricular or atrial refractoriness was reached. The stimulation procedures were repeated at three different basal cycle lengths (100 ms, 90 ms, 80 ms) with each animal. Occurrence and duration of inducible arrhythmias were documented. Only stimulation protocols with reproducible arrhythmias longer than five consecutive beats in ventricle and episodes longer than 350 ms in the atria were considered positive. “Arrhythmia inducibility” was calculated as the percentage of effective (positive) out of total protocols applied. Accordingly, the arrhythmia inducibility of individual animals could take a value of 0, 33, 66 or 100%. […]

[2] = single i.v. injection 2 mg/kg, vs vehicle

CNC(=O)C(=O)NCCCC/C=C\CCCCCCCOCC(=O)O [Comp-02, 2-((13-(2-(methylamino)-2-oxoacetamido)tridec-8(Z)-en-1-yl)oxy)acetic acid]
negative chronotropic effect on NRCMs, in words [1]: equal potency | obvious negative side effects (male B16 mice; single i.v. bolus injection, 2 mg/kg body weight): did not induce any obvious negative side effects | reduction of the inducibility of sustained arrhythmia episodes (male B16 mice; [2]): 62% | severity of induced atrial fibrillation episodes (male B16 mice; [2]): significantly reduced | sum of totally induced atrial fibrillation episodes (atrial fibrillation burden) (male B16 mice; [2]): reduced significantly
